Laboratory results: patent publication US10653693B2, “PRMT5 inhibitors and uses thereof” (Epizyme, Inc., priority 2014, dated 2020)

What was measured:
[1] = test system: MDM4 splicing in Z138 cells; assay: MDM4 splicing analysis (PCR); format: cell-based, Human; conditions: Z138 mantle cell lymphoma cells
Experimental: Z138 cells were seeded in 10 cm tissue culture dishes at a density of approximately 3×10^6 cells per dish in a volume of 10 mL IMDM+10% horse serum media. Cells were treated with 200 nM or 1 μM of compound at 0.5% DMSO for 1, 2, or 3 days. Cell pellets were harvested by washing once with PBS, […], centrifuging at 1000×g for 5 minutes, then storing at −80° C. until ready to process.
RNA was extracted from cell pellets. First, pellets were thawed on ice and then quickly resuspended in 500 μL Trizol reagent. Samples were then incubated 2-3 minutes at room temperature and vortexed for 30 sec to completely homogenize the lysate. 50 μL of water and 50 μL of chloroform were added to each Trizol-cell mixture, then each sample was vortexed for 30 sec to mix completely. Samples were loaded onto MaXtract High Density tubes and spun at 14,000 RPM for 5 minutes. The clear supernatant (aqueous phase) from each tube was transferred to a new 2 mL tube and 2× volume of freshly prepared 70% ethanol was added to each sample. Samples were loaded onto RNeasy spin columns (part of Qiagen RNeasy Mini kit). Columns were centrifuged at 9000×g for 15 sec and flow-through was discarded. 350 μL Buffer RW1 was added to each column and samples were centrifuged at […] for 15 sec and flow-through was discarded. […] RNA concentration was analyzed on a Nanodrop. […]

[2] = test system: SW48 colon cancer cells (SW48−/− vs SW48); assay: Sensitivity of cells lacking p53 versus wild-type; format: cell-based; conditions: based on EC50, gIC50, or gIC90
Text: PRMT5 methylation of non-histone substrates (such as E2F1 and p53) also contributes to cancer cell growth and death. Results of Western blot and PCR experiments indicate PRMT5 inhibition leads to gene expression and splicing changes, ultimately resulting in the induction of p53 in cancer cells. A PRMT5 inhibitor of Formula C was used to generate the data in FIG. 21 and FIG. 22.

`O=C(NC[C@H](O)CN1CCc2ccccc2C1)c1ccnc(NC2CCC2)c1` [Formula C] was tested, and the MDM4 splicing [1] was “attenuates” and the “sensitivity of cells lacking p53 compared to wild-type” value [2] was “less sensitive”.
